From paper PMC6543056 (Acta Pharmaceutica Sinica. B, 2019)

Target: Vps34 (Homo sapiens, UniProt Q8NEB9)
Assay: ELISA assay of Vps34 kinase activity
Type: biochemical
Conditions: Fig. S4

Sequence of Vps34 (Q8NEB9 whole entry): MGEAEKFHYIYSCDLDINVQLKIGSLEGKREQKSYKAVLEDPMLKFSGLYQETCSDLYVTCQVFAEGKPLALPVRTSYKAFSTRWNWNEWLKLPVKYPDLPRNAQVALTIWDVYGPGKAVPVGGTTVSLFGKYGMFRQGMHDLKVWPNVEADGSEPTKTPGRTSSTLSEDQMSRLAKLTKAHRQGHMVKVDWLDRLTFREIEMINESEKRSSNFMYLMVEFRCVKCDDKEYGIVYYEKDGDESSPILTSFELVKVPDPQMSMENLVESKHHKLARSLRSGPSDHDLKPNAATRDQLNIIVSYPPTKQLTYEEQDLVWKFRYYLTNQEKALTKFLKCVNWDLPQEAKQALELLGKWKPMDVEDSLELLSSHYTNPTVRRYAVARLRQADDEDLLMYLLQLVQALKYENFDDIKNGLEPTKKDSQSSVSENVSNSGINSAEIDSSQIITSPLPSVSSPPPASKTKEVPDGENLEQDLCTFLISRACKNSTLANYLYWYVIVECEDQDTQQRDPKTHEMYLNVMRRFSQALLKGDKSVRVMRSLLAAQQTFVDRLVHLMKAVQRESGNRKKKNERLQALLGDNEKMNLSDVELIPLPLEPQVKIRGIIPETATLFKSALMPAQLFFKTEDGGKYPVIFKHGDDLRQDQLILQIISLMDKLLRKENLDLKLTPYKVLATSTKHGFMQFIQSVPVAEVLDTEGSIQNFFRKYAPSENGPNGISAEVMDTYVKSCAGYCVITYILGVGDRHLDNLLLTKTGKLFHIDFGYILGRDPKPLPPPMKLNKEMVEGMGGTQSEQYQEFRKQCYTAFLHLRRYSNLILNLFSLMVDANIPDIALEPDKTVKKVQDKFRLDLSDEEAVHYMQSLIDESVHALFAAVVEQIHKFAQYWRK

O=C1/C(=C/C=C/c2ccccc2)Oc2cc(O)ccc21 [1d]
Vps34 inhibition of analogues, SAR (in words): abolishment of activity
